Like-named read-outs stand apart in the source and are kept apart here. Bridge positions count the residues as written; N and C are the ends. Square brackets hold non-standard residues; d marks the D form. Ends that are not written are not given here. Peptide text beside a SMILES is read from it. I, II: the chains in the order shown. ξ: configuration not given here. Dap(N3) = [N-]=[N+]=NC[C@H](N)C(=O)O; ξDap(N3) = [N-]=[N+]=NCC(N)C(=O)O

The test system of one data set is nasal mucous membrane. To be noted: rat, intranasal; for AUC0-360min of fexofenadine, times higher than the group dosed with fexofenadine alone: fexofenadine with peptide (text on Table 1). As to the method: Male Sprague-Dawley (SD) rats (280-300 g) were acclimated for a minimum of two days in individual cages in a laboratory animal room. At this time, the rats were allowed to freely consume food and water before an experiment, provided with light for 12 hours, and maintained in the dark state for 12 hours. One day before the experiment, the animals were provided only with water and fasted.
The rats prepared in above 1 were divided into each group of three to five rats so as to prepare a total of nine groups, after which each of the test substances prepared was intranasally administered into the group. At this time, the dosage of each drug was 1.0, 2.5 or 5.0 mg/kg per rat.
Before intranasal administration, the rat was anesthetized and cannulated into the femoral veno-artery using PE-50. The solution was carefully administered to the nostril of the rat using a micropipette (Eppendof) so as not to affect the nasal mucous membrane. At this time, the rat's body was laid on the floor and the head was placed while leaning against the wall.
The collected blood was centrifuged at 13,000 rpm for 10 minutes so as to obtain 100 μl of plasma. After adding 200 μl of methanol to the obtained plasma, the resulting solution was subjected into vortex, and then centrifuged again at 13,000 rpm for 10 minutes to carry out deproteinization, and the supernatant was quantitatively analyzed by HPLC-MS.

Data set [1] can be described thus: Intestinal (duodenum) administration of doxorubicin with peptide or peptide dimer in rats, doxorubicin blood concentration. To be noted: rat, in vivo. As to the method:
(§1) For a control group, a 0.5% (w/v) levan aqueous solution including doxorubicin without the peptide was prepared.
(§2) At this time, the dosage of peptide-containing drug was 10 mg/kg for each group.
(§3) Before drug administration, the rat was anesthetized and cannulated into the femoral veno-artery using PE-50. An abdominal cavity was opened and the test substance was administered to an upper duodenum of the small intestine.
(§4) After administration of the solution through a cannula inserted into the femoral vein of the rat, each 250 μl of blood was collected at 5, 10, 20, 40, 60, 120, 180 and 240 minutes and saline was supplemented via the femoral artery. The collected blood was centrifuged at 13,000 rpm for 10 minutes so as to obtain 100 μl of plasma. After adding 200 μl of methanol to the obtained plasma, the resulting solution was subjected into vortex, and then centrifuged again at 13,000 rpm for 10 minutes to carry out deproteinization, and the supernatant was quantitatively analyzed by HPLC-Fluorescence.

In data set [2] the test system is intestinal mucous membrane. The description is as above. To be noted: rat, duodenum, peptide 10 mg/kg vs doxorubicin only. Here is the method: as §1, §2, §3, §4
For data set [3] the following is noted: rat, plasma, 10 mg/kg. As to the method:
as §3
(§5) After administration of the solution through a cannula inserted into the femoral vein of the rat, each 250 μl of blood was collected at 5, 10, 20, 40, 60, 120, 180 and 240 minutes and saline was supplemented via the femoral artery. The collected blood was centrifuged at 13,000 rpm for 10 minutes so as to obtain 100 μl of plasma. After adding 200 μl of methanol to the obtained plasma, the resulting solution was subjected into vortex, and then centrifuged again at 13,000 rpm for 10 minutes to carry out deproteinization, and the supernatant was quantitatively analyzed by HPLC-MS.

Data set [4] concerns intestinal mucous membrane. To be noted: rat, duodenum. As to the method: as §3, §5
In another data set the test system is Caco-2 monolayer. In words: Drug permeability through the Caco-2 monolayer with peptide. To be noted: peptide 5 mM, all drugs of Table 3.
A further data set in a line: in vitro. To be noted: human, Caco-2.
Setting [5] is: fexofenadine with peptide vs fexofenadine alone.

As for `CC[C@H](C)[C@H](NC(=O)[C@H](CSSC[C@H](NC(=O)[C@@H](N)Cc1ccccc1)C(=O)N[C@H](C(=O)NCC(=O)N[C@@H](CCCNC(=N)N)C(=O)N[C@@H](CC(C)C)C(=O)O)[C@@H](C)CC)NC(=O)[C@@H](N)Cc1ccccc1)C(=O)NCC(=O)N[C@@H](CCCNC(=N)N)C(=O)N[C@@H](CC(C)C)C(=O)O` [Example 4, FCIGRL-OH Dimer] (I: H-FCIGRL-OH / II: H-FCIGRL-OH; disulfide I:2-II:2), in the data set on nasal mucous membrane, the “AUC0-360min of fexofenadine, times higher than the group dosed with fexofenadine alone” value amounted to 3.6 times. In the data set on nasal mucous membrane (setting [5]), the “Fexofenadine AUC0-240 min, fold of control group” value (“Fexofenadine AUC0-240 min, fold” for short) is reported as “(3.64-fold)”; the “Fexofenadine Cmax, fold of control group” value turned out to be 6 fold; the “Fexofenadine Tmax, fold of control group” value is “(0.41-fold)”. Also, the “Fexofenadine Cmax, fold of control group” value in the data set with nasal mucous membrane (fexofenadine with peptide vs fexofenadine alone, listed as H-FCIGRL-OH (Dimer)) is “(6.06-fold)”.
In the case of `CC[C@@H](C)[C@@H](NC(=O)[C@@H](CSSC[C@H](NC(=O)[C@H](N)Cc1ccccc1)C(=O)N[C@H](C(=O)NCC(=O)N[C@@H](CCCNC(=N)N)C(=O)N[C@@H](CC(C)C)C(N)=O)[C@@H](C)CC)NC(=O)[C@@H](N)Cc1ccccc1)C(=O)NCC(=O)N[C@H](CCCNC(=N)N)C(=O)N[C@H](CC(C)C)C(N)=O` [Example 3, FCIGRL-NH2 Dimer] (I: H-F[dC][dI]G[dR][dL]-NH2 / II: H-[dF]CIGRL-NH2; disulfide I:2-II:2), the values for the AUC(0-t) in data set [1] (10 mg/kg) and in data set [3] were 174 ng·h/mL and 343 ng·h/mL, respectively. For the same molecule, the “Doxorubicin AUC0-240 min, fold of control” value in data set [2] is listed as “(2.29-fold)”. Further, the “AUC0-360min of fexofenadine, times higher than the group dosed with fexofenadine alone” value with nasal mucous membrane stood at 5.3 times. Further, in the data set with nasal mucous membrane (setting [5]), the “Fexofenadine AUC0-240 min, fold” value was “(5.30-fold)”. Also, the “Fexofenadine Cmax, fold of control group” value with nasal mucous membrane (setting [5]) is given as 9.7 fold; in the data set on nasal mucous membrane (fexofenadine with peptide vs fexofenadine alone, listed as H-FCIGRL-NH2 (Dimer)), “(9.76-fold)”. Further, the “Fexofenadine Tmax, fold of control group” value in the data set on nasal mucous membrane (setting [5]) is recorded as “(0.38-fold)”. For the same molecule, the “Exenadine AUC0-240 min, fold of control” value is “about 2.17 fold” in data set [4] (5 mg/kg of peptide dimer vs exenadine alone, 5 mg/kg); 3.88(2.17-fold) in data set [4] (5 mg/kg of peptide dimer vs exenadine alone, listed as H-FCIGRL-NH2 (Dimer), 5 mg/kg); about 4.57 fold in data set [4] (10 mg/kg of peptide dimer vs exenadine alone, 10 mg/kg); 6.32 (4.57-fold) in data set [4] (10 mg/kg of peptide dimer vs exenadine alone, listed as H-FCIGRL-NH2 (Dimer), 10 mg/kg). The “increase rate of Papp (cm/sec) of each drug, effect of promoting mucous membrane permeation” value in the data set on Caco-2 monolayer is listed as “at least seven times higher”.
As to “FCIGRL-NH2 [Preparation Example 1, FCIGRL-NH2, reference compound]”, the “Doxorubicin AUC0-240 min, fold of control” value in data set [2] is reported as “(1.49-fold)”. Further, in the data set on nasal mucous membrane (setting [5]), the “Fexofenadine AUC0-240 min, fold” value was “(1.70-fold)”; the “Fexofenadine Cmax, fold of control group” value was “(1.45-fold)”; the “Fexofenadine Tmax, fold of control group” value is given as “(1.14-fold)”.
Regarding `CC[C@H](C)[C@H](NC(=O)C(CN=[N+]=[N-])NC(=O)[C@H](N)Cc1ccccc1)C(=O)NCC(=O)N[C@@H](CCCNC(=N)N)C(=O)N[C@@H](CC(C)C)C(N)=O` (stereo partly drawn) [Example 1, FX1IGRL-NH2(X1=Dap(N3))] (H-[dF][ξDap(N3)]IGRL-NH2), the “Doxorubicin AUC0-240 min, fold of control” value in data set [2] is recorded as “(1.81-fold)”. For the same molecule, the results for the “Fexofenadine AUC0-240 min, fold” value in the data set with nasal mucous membrane (setting [5]), in the data set on nasal mucous membrane (peptide 1 mg/kg) and in the data set on nasal mucous membrane (peptide 5 mg/kg) were “(1.92-fold)”, “(1.64-fold)” and “(2.48-fold)”, respectively. Also, the “Fexofenadine Cmax, fold of control group” value in the data set on nasal mucous membrane (setting [5]) is 3 fold; with nasal mucous membrane (fexofenadine with peptide vs fexofenadine alone, listed as H-FX1IGRL-NH2), “(2.90-fold)”; in the data set with nasal mucous membrane (peptide 1 mg/kg) it was 2 fold; with nasal mucous membrane (peptide 1 mg/kg, listed as H-FX1IGRL-NH2), “(2.01-fold)”; in the data set on nasal mucous membrane (peptide 5 mg/kg) it was 4 fold; in the data set with nasal mucous membrane (peptide 5 mg/kg, listed as H-FX1IGRL-NH2), “(4.05-fold)”. For the same molecule, the “Fexofenadine Tmax, fold of control group” value in the data set on nasal mucous membrane (setting [5]) was “(0.57-fold)”; in the data set with nasal mucous membrane (peptide 1 mg/kg), “(0.57-fold)”; in the data set with nasal mucous membrane (peptide 5 mg/kg), “(0.43-fold)”; with nasal mucous membrane (peptide […]), “(0.57-fold)”.
The molecule `COCCc1ccc(OCC(O)CNC(C)C)cc1` (stereo not drawn) [metoprolol] came in with a Papp in the data set “in vitro” of 38.9 ×10⁻⁶ cm/s.
Regarding `CC[C@H](C)[C@H](NC(=O)[C@H](CSSC[C@H](NC(=O)[C@H](Cc1ccccc1)NC(=O)[C@@H](N)CN=[N+]=[N-])C(=O)N[C@H](C(=O)NCC(=O)N[C@@H](CCCNC(=N)N)C(=O)N[C@@H](CC(C)C)C(N)=O)[C@@H](C)CC)NC(=O)[C@H](Cc1ccccc1)NC(=O)[C@@H](N)CN=[N+]=[N-])C(=O)NCC(=O)N[C@@H](CCCNC(=N)N)C(=O)N[C@@H](CC(C)C)C(N)=O` [Example 5, X1FCIGRL-NH2 Dimer] (I: H-[Dap(N3)]FCIGRL-NH2 / II: H-[Dap(N3)]FCIGRL-NH2; disulfide I:3-II:3), the “Doxorubicin AUC0-240 min, fold of control” value in data set [2] is on record as “(1.77-fold)”.
On to “FCIGRL [Preparation Example 2, FCIGRL, reference compound]”, for which, in the data set with nasal mucous membrane (setting [5]), the “Fexofenadine AUC0-240 min, fold” value was “(1.53-fold)”; the “Fexofenadine Cmax, fold of control group” value is reported as “(1.16-fold)”; the “Fexofenadine Tmax, fold of control group” value is recorded as “(1.52-fold)”.
In the case of `COc1cccc2c1C(=O)c1c(O)c3c(c(O)c1C2=O)C[C@@](O)(C(=O)CO)C[C@@H]3O[C@H]1C[C@H](N)[C@H](O)[C@H](C)O1` [Doxorubicin, doxorubicin, reference compound], in data set [1] (male, Sprague-Dawley), the AUC(0-t) was 76.2 ng·h/mL.
On to “FKIGRL [Preparation Example 4, FKIGRL, reference compound]”, for which, in the data set on nasal mucous membrane (setting [5]), the “Fexofenadine AUC0-240 min, fold” value is “(1.09-fold)”; the “Fexofenadine Cmax, fold of control group” value is “(0.71-fold)”; the “Fexofenadine Tmax, fold of control group” value was “(1.14-fold)”.
As to “FRIGRL [Preparation Example 3, FRIGRL, reference compound]”, in the data set on nasal mucous membrane (setting [5]), the “Fexofenadine AUC0-240 min, fold” value was “(1.39-fold)”; the “Fexofenadine Cmax, fold of control group” value was “(0.73-fold)”; the “Fexofenadine Tmax, fold of control group” value is reported as “(1.71-fold)”.
